Consider seven compounds from ChEMBL document CHEMBL3397019, “Enhancement of antioxidant effects of naringin after atmospheric pressure dielectric barrier discharge plasma treatment” (Bioorg Med Chem Lett, 2015).

Assay type in all cases: physicochemical
Data set [1] in a line: Antioxidant activity assessed as ONOO- scavenging activity.
Data set [2] can be described thus: Antioxidant activity assessed as DPPH free radical scavenging activity. On the technique in general: Loss of DPPH colour is used to gauge radical scavenging.
Data set [3] can be described thus: Antioxidant activity assessed as DPPH free radical scavenging activity using plasma treated compound.
The nature of data set [4]: Antioxidant activity assessed as ONOO- scavenging activity using plasma treated compound.

pIC50: −log10 of the molar value.

For orientation: pIC50 means the negative decadic logarithm of the IC50, by convention in mol/L. Turning to `CC(C)(S)[C@H](N)C(=O)O`, the pIC50 in data set [1] was 5.28. For `C[C@H]1O[C@@H](O[C@H]2[C@H](Oc3cc(O)c4c(c3)O[C@H](c3ccc(O)cc3)CC4=O)O[C@H](CO)[C@@H](O)[C@@H]2O)[C@H](O)[C@@H](O)[C@@H]1O`, the pIC50 in data set [1] and in data set [2] was less than 3.52 each time. Turning to `COCO[C@H]1[C@H](O)[C@@H](O[C@@H]2O[C@H](C)[C@@H](O)[C@H](O)[C@H]2O)[C@H](Oc2cc(O)c3c(c2)O[C@@H](c2ccc(O)cc2)CC3=O)O[C@@H]1CO`, the negative-log IC50 (pIC50) in data set [1] was 5.39; in data set [2], 4.24. The matching figures for `COCO[C@H]1[C@H](O)[C@@H](O)[C@H](O[C@H]2[C@H](Oc3cc(O)c4c(c3)O[C@H](c3ccc(O)cc3)CC4=O)O[C@H](CO)[C@@H](O)[C@@H]2O)O[C@@H]1C`: 3.59 and 3.83. On the same counts, the results for `C[C@H]1O[C@@H](O[C@H]2[C@H](Oc3cc(O)c4c(c3)O[C@@H](c3ccc(O)cc3)CC4=O)O[C@H](CO)[C@@H](O)[C@@H]2O)[C@H](O)[C@@H](O)[C@@H]1O` are less than 3.52 and 4.03. As to `Oc1cc(O)c2c(c1)O[C@H](c1ccc(O)c(O)c1)[C@@H](O)C2` [CIANIDANOL], the pIC50 in data set [2] was 4.62. Turning to `C[C@@H]1O[C@@H](O[C@H]2[C@H](Oc3cc(O)c4c(c3)O[C@H](c3ccc(O)cc3)CC4=O)O[C@H](CO)[C@@H](O)[C@@H]2O)[C@H](O)[C@H](O)[C@H]1O` [NARINGIN], the pIC50 in data set [3] was 3.96; in data set [4], 4.81.
